Data on eleven molecules can be found in US20140343000A1 (priority 2011, published 2014).

Where only a bound is given, the exact number is not on record here.

The subject of the first test is recombinant NL4-3 virus (Renilla luciferase in nef, Gag P373S; NLRluc) in MT-2 cells. As to the kind of experiment: whole plant or invertebrate. Type of test: cell-based, HIV. To be noted: Renilla, NL43. Put shortly: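 Cells grown in serum-supplemented RPMI were exposed to graded inhibitor concentrations during a 4-5 day infection. Antiviral effect was then derived from luminescence after adding a combined lysis and dual-luciferase substrate mixture to each well.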
For orientation: EC50 means the midpoint of the concentration-response curve. Consider `C=C(C)[C@@H]1CC[C@]2(NCCN3CCS(=O)(=O)CC3)CC[C@]3(C)[C@H](CC[C@@H]4[C@@]5(C)CC=C(c6ccc(C(=O)NS(=O)(=O)C7CC7)cc6)C(C)(C)[C@@H]5CC[C@]43C)[C@@H]12` [Example 164, N-(cyclopropylsulfonyl)-4-((1R,3aS,5aR,5bR,7aR,11aS,11bR,13aR,13bR)-3a-((2-(1,1-dioxido-4-thiomorpholinyl)ethyl)amino)-1-isopropenyl-5a,5b,8,8,11a-pentamethyl-2,3,3a,4,5,5a,5b,6,7,7a,8,11,11a,11b,12,13,13a,13b-octadecahydro-1H-cyclopenta[a]chrysen-9-yl)benzamide], for which the EC50 is below 100 nM.

Staying with this test, now noted: Renilla, NL43, luciferase activity in cells infected for 4-5 days with NLRluc recombinants, serial dilutions of inhibitor; class symbols (key in Table 1); read-out: EC50.
With `C=C(C)[C@@H]1CC[C@]2(NCCN3CCOCC3)CC[C@]3(C)[C@H](CC[C@@H]4[C@@]5(C)CC=C(c6ccc(C(=O)O)cc6)C(C)(C)[C@@H]5CC[C@]43C)[C@@H]12` [Example 159, 4-((1R,3aS,5aR,5bR,7aR,11aS,11bR,13aR,13bR)-5a,5b,8,8,11a-pentamethyl-3a-(2-morpholinoethylamino)-1-(prop-1-en-2-yl)-2,3,3a,4,5,5a,5b,6,7,7a,8,11,11a,11b,12,13,13a,13b-octadecahydro-1H-cyclopenta[a]chrysen-9-yl)benzoic acid], the EC50 was below 100 nM. The same measure, in the same setting: the result for `C=C(C)[C@@H]1CC[C@]2(N(CCN3CCOCC3)CCN3CCOCC3)CC[C@]3(C)[C@H](CC[C@@H]4[C@@]5(C)CC=C(c6ccc(C(=O)O)cc6)C(C)(C)[C@@H]5CC[C@]43C)[C@@H]12` [Example 160, 4-((1R,3aS,5aR,5bR,7aR,11aS,11bR,13aR,13bR)-3a-(bis(2-morpholinoethyl)amino)-5a,5b,8,8,11a-pentamethyl-1-(prop-1-en-2-yl)-2,3,3a,4,5,5a,5b,6,7,7a,8,11,11a,11b,12,13,13a,13b-octadecahydro-1H-cyclopenta[a]chrysen-9-yl)benzoic acid] reads below 100 nM; that for `C=C(C)[C@@H]1CC[C@]2(NCc3cscn3)CC[C@]3(C)[C@H](CC[C@@H]4[C@@]5(C)CC=C(c6ccc(C(=O)O)cc6)C(C)(C)[C@@H]5CC[C@]43C)[C@@H]12` [Example 161, 4-((1R,3aS,5aR,5bR,7aR,11aS,11bR,13aR,13bR)-5a,5b,8,8,11a-pentamethyl-1-(prop-1-en-2-yl)-3a-(thiazol-4-ylmethylamino)-2,3,3a,4,5,5a,5b,6,7,7a,8,11,11a,11b,12,13,13a,13b-octadecahydro-1H-cyclopenta[a]chrysen-9-yl)benzoic acid], below 100 nM; that for `C=C(C)[C@@H]1CC[C@]2(NCc3csc(C)n3)CC[C@]3(C)[C@H](CC[C@@H]4[C@@]5(C)CC=C(c6ccc(C(=O)O)cc6)C(C)(C)[C@@H]5CC[C@]43C)[C@@H]12` [Example 162, 4-((1R,3aS,5aR,5bR,7aR,11aS,11bR,13aR,13bR)-5a,5b,8,8,11a-pentamethyl-3a-((2-methylthiazol-4-yl)methylamino)-1-(prop-1-en-2-yl)-2,3,3a,4,5,5a,5b,6,7,7a,8,11,11a,11b,12,13,13a,13b-octadecahydro-1H-cyclopenta[a]chrysen-9-yl)benzoic acid], below 100 nM. The same measure, in the same setting: the result for `CC(C)[C@@H]1CC[C@]2(NCCN3CCS(=O)(=O)CC3)CC[C@]3(C)[C@H](CC[C@@H]4[C@@]5(C)CC=C(c6ccc(C(=O)O)cc6)C(C)(C)[C@@H]5CC[C@]43C)[C@@H]12` [Example 163, 4-((1S,3aS,5aR,5bR,7aR,11aS,11bR,13aR,13bR)-3a-((2-(1,1-dioxido-4-thiomorpholinyl)ethyl)amino)-1-isopropyl-5a,5b,8,8,11a-pentamethyl-2,3,3a,4,5,5a,5b,6,7,7a,8,11,11a,11b,12,13,13a,13b-octadecahydro-1H-cyclopenta[a]chrysen-9-yl)benzoic acid] reads below 100 nM; that for `C=C(C)[C@@H]1CC[C@]2(NCCCN3CCOCC3)CC[C@]3(C)[C@H](CC[C@@H]4[C@@]5(C)CC=C(c6ccc(C(=O)O)cc6)C(C)(C)[C@@H]5CC[C@]43C)[C@@H]12` [Example 165, 4-((1R,3aS,5aR,5bR,7aR,11aS,11bR,13aR,13bR)-5a,5b,8,8,11a-pentamethyl-3a-(3-morpholinopropylamino)-1-(prop-1-en-2-yl)-2,3,3a,4,5,5a,5b,6,7,7a,8,11,11a,11b,12,13,13a,13b-octadecahydro-1H-cyclopenta[a]chrysen-9-yl)benzoic acid], below 100 nM; that for `C=C(C)[C@@H]1CC[C@]2(NCCc3ccncc3)CC[C@]3(C)[C@H](CC[C@@H]4[C@@]5(C)CC=C(c6ccc(C(=O)O)cc6)C(C)(C)[C@@H]5CC[C@]43C)[C@@H]12` [Example 166, 4-((1R,3aS,5aR,5bR,7aR,11aS,11bR,13aR,13bR)-5a,5b,8,8,11a-pentamethyl-1-(prop-1-en-2-yl)-3a-((2-(pyridin-4-yl)ethyl)amino)-2,3,3a,4,5,5a,5b,6,7,7a,8,11,11a,11b,12,13,13a,13b-octadecahydro-1H-cyclopenta[a]chrysen-9-yl)benzoic acid], below 100 nM. As for `C=C(C)[C@@H]1CC[C@]2(NCCN3CCSCC3)CC[C@]3(C)[C@H](CC[C@@H]4[C@@]5(C)CC=C(c6ccc(C(=O)O)cc6)C(C)(C)[C@@H]5CC[C@]43C)[C@@H]12` [Example 168, 4-((1R,3aS,5aR,5bR,7aR,11aS,11bR,13aR,13bR)-5a,5b,8,8,11a-pentamethyl-1-(prop-1-en-2-yl)-3a-(2-thiomorpholinoethylamino)-2,3,3a,4,5,5a,5b,6,7,7a,8,11,11a,11b,12,13,13a,13b-octadecahydro-1H-cyclopenta[a]chrysen-9-yl)benzoic acid], the EC50 is below 100 nM.

`C=C(C)[C@@H]1CC[C@]2(NCCCN(C)C)CC[C@]3(C)[C@H](CC[C@@H]4[C@@]5(C)CC=C(c6ccc(C(=O)O)cc6)C(C)(C)[C@@H]5CC[C@]43C)[C@@H]12` [Example 169, 4-((1R,3aS,5aR,5bR,7aR,11aS,11bR,13aR,13bR)-3a-(3-(dimethylamino)propylamino)-5a,5b,8,8,11a-pentamethyl-1-(prop-1-en-2-yl)-2,3,3a,4,5,5a,5b,6,7,7a,8,11,11a,11b,12,13,13a,13b-octadecahydro-1H-cyclopenta[a]chrysen-9-yl)benzoic acid]: the 50% effective concentration (EC50) was below 100 nM.

Still in this test, the particulars now being: Renilla, NL43, luciferase activity in cells infected for 4-5 days with NLRluc recombinants, serial dilutions of inhibitor; numeric values; read-out: EC50.
As for `C=C(C)[C@@H]1CC[C@]2(N(CCN3CCCC3)CCN3CCCC3)CC[C@]3(C)[C@H](CC[C@@H]4[C@@]5(C)CC=C(c6ccc(C(=O)O)cc6)C(C)(C)[C@@H]5CC[C@]43C)[C@@H]12` [Example 167, 4-((1R,3aS,5aR,5bR,7aR,11aS,11bR,13aR,13bR)-3a-(bis(2-(pyrrolidin-1-yl)ethyl)amino)-5a,5b,8,8,11a-pentamethyl-1-(prop-1-en-2-yl)-2,3,3a,4,5,5a,5b,6,7,7a,8,11,11a,11b,12,13,13a,13b-octadecahydro-1H-cyclopenta[a]chrysen-9-yl)benzoic acid], the EC50 is 4 nM.
